The results in this text go back to patent publication US8338565B2, “Macrocyclic compounds for inhibition of tumor necrosis factor alpha” (Ensemble Therapeutics Corporation, priority 2008, dated 2012).

Numbered stars: 1 amine (or outer) side, 2 acyl side, 3 side chain; on linkers, the order of the positions; unused ones are H or OH. Bridge positions count the residues as written; N and C are the ends. Square brackets hold non-standard residues; d marks the D form. Peptide text beside a SMILES is read from it. * marks the point of attachment. Tartaroyl(2R,3R-(OAc)2) = CC(=O)O[C@@H](C(=O)[*:1])[C@@H](OC(C)=O)C(=O)[*:2]; Gly(N-(4-CH2NH-benzyl)) = O=C(CN(Cc1ccc(CN[*:3])cc1)[*:1])[*:2]; Phe(4-(2-MeO-Ph)) = COc1ccccc1-c1ccc(C[C@H](N)C(=O)O)cc1; dAla(benzothien-2-yl) = N[C@H](Cc1cc2ccccc2s1)C(=O)O; Phe(4-CF3) = N[C@@H](Cc1ccc(C(F)(F)F)cc1)C(=O)O; dPhe(3-CF3) = N[C@H](Cc1cccc(C(F)(F)F)c1)C(=O)O; dPhe(2-CF3) = N[C@H](Cc1ccccc1C(F)(F)F)C(=O)O; Bip = N[C@@H](Cc1ccc(-c2ccccc2)cc1)C(=O)O; dPhe(4-NH2) = Nc1ccc(C[C@@H](N)C(=O)O)cc1; Phe(4-Br) = N[C@@H](Cc1ccc(Br)cc1)C(=O)O; Phe(4-NH2) = Nc1ccc(C[C@H](N)C(=O)O)cc1; dAla(2-furyl) = N[C@H](Cc1ccco1)C(=O)O; Maleoyl = O=C(/C=C\C(=O)[*:2])[*:1]; dIgl = N[C@@H](C(=O)O)C1Cc2ccccc2C1; d(hPhe) = N[C@H](CCc1ccccc1)C(=O)O; Cha = N[C@@H](CC1CCCCC1)C(=O)O; d2Thi = N[C@H](Cc1cccs1)C(=O)O; NH(CH2)2O(CH2)2NH2 = NCCOCCN*; Suc = O=C(CCC(=O)[*:2])[*:1]; Bn = c1ccc(C*)cc1

In the experiment the target is T1, TNFα / TNFα receptor (TNFα R1/Fc) (Homo sapiens, UniProt P01375).
T1 construct: purchased R&D Systems
T1 sequence (P01375 77-233 limits assumed, species assumed): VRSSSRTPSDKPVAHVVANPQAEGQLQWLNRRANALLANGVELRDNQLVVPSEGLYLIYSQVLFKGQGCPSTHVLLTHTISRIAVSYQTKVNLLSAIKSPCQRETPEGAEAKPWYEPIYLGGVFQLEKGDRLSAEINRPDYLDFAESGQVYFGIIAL
Nature of the experiment: Inhibition of binding of TNFα to the TNFα receptor (plate ELISA competition). The following applies: Table 2; read-out: Activity (IC50, inhibition of TNFα binding to TNFα R1/Fc). An outline of the steps: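 Compound dilutions were preincubated 30 min at RT with 8.33 nM TNFα R1/Fc in PBST with 2% DMSO, then added to wells coated with 15 nM TNFα for 30 min. Bound receptor was detected with HRP anti-human Fc and TMB, read as A450.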
`CC(=O)O[C@H]1C(=O)Nc2ccc(cc2)C[C@H](C(=O)O)NC(=O)[C@@H](Cc2ccco2)NC(=O)[C@H](Cc2ccc(Br)cc2)NC(=O)[C@@H](Cc2ccccc2)NC(=O)[C@@H]1OC(C)=O` [Compound 160] ([dF][Phe(4-Br)][dAla(2-furyl)][dPhe(4-NH2)]-OH; linker N-4 via Tartaroyl(2R,3R-(OAc)2)): the IC50 lay in the range of 30 to 100 µM.

Regarding `O=C1N[C@H](Cc2ccco2)C(=O)N[C@@H](C(=O)O)Cc2ccc(cc2)NC(=O)[C@H](O)[C@@H](O)C(=O)N[C@H](Cc2ccccc2)C(=O)N[C@H]1Cc1ccc(Br)cc1` [Compound 161], the IC50 was over 100 µM.

As to `COc1ccc(C[C@H]2NC(=O)CCC(=O)Nc3ccc(cc3)C[C@@H](C(=O)O)NC(=O)[C@@H](Cc3ccccc3)NC(=O)[C@H](Cc3ccc(C(F)(F)F)cc3)NC2=O)cc1` [Compound 162] ([dY](Me)[Phe(4-CF3)][dF][Phe(4-NH2)]-OH; linker N-4 via Suc), the IC50 is over 100 µM.

For the compound `O=C1CCC(=O)N[C@H](Cc2ccccc2C(F)(F)F)C(=O)N[C@@H](Cc2ccc(C(F)(F)F)cc2)C(=O)N[C@H](Cc2ccccc2)C(=O)N[C@H](C(=O)O)Cc2ccc(cc2)N1` [Compound 163] ([dPhe(2-CF3)][Phe(4-CF3)][dF][Phe(4-NH2)]-OH; linker N-4 via Suc), the IC50 lay in the range of 30 to 100 µM.

As for `O=C1CCC(=O)N[C@H](Cc2cc3ccccc3s2)C(=O)N[C@@H](Cc2ccc(C(F)(F)F)cc2)C(=O)N[C@H](Cc2ccccc2)C(=O)N[C@H](C(=O)O)Cc2ccc(cc2)N1` [Compound 164] ([dAla(benzothien-2-yl)][Phe(4-CF3)][dF][Phe(4-NH2)]-OH; linker N-4 via Suc), the IC50 fell in the range of 30 to 100 µM.

In the case of `O=C1CCC(=O)N[C@H](C2Cc3ccccc3C2)C(=O)N[C@@H](Cc2ccc(C(F)(F)F)cc2)C(=O)N[C@H](Cc2ccccc2)C(=O)N[C@H](C(=O)O)Cc2ccc(cc2)N1` [Compound 165] ([dIgl][Phe(4-CF3)][dF][Phe(4-NH2)]-OH; linker N-4 via Suc), the IC50 is over 100 µM.

Regarding `O=C1CCC(=O)N[C@H](Cc2cccc(C(F)(F)F)c2)C(=O)N[C@@H](Cc2ccc(C(F)(F)F)cc2)C(=O)N[C@H](Cc2ccccc2)C(=O)N[C@H](C(=O)O)Cc2ccc(cc2)N1` [Compound 166] ([dPhe(3-CF3)][Phe(4-CF3)][dF][Phe(4-NH2)]-OH; linker N-4 via Suc), the IC50 was in the range of 30 to 100 µM.

Regarding `COc1ccccc1-c1ccc(C[C@@H]2NC(=O)[C@@H](CCc3ccccc3)NC(=O)CCC(=O)Nc3ccc(cc3)C[C@@H](C(=O)O)NC(=O)[C@@H](Cc3ccccc3)NC2=O)cc1` [Compound 167] ([d(hPhe)][Phe(4-(2-MeO-Ph))][dF][Phe(4-NH2)]-OH; linker N-4 via Suc), the IC50 is over 100 µM.

Consider `COc1ccc(-c2ccc(C[C@@H]3NC(=O)[C@@H](CCc4ccccc4)NC(=O)CCC(=O)Nc4ccc(cc4)C[C@@H](C(=O)O)NC(=O)[C@@H](Cc4ccccc4)NC3=O)cc2)cc1` [Compound 168], for which the IC50 was in the range of 30 to 100 µM.

In the case of `O=C1CCC(=O)N[C@H](CCc2ccccc2)C(=O)N[C@@H](Cc2ccc(-c3cccc(O)c3)cc2)C(=O)N[C@H](Cc2ccccc2)C(=O)N[C@H](C(=O)O)Cc2ccc(cc2)N1` [Compound 169], the IC50 was over 100 µM.

In the case of `O=C1CCC(=O)N[C@H](CCc2ccccc2)C(=O)N[C@@H](Cc2ccc(-c3ccccc3Cl)cc2)C(=O)N[C@H](Cc2ccccc2)C(=O)N[C@H](C(=O)O)Cc2ccc(cc2)N1` [Compound 170], the IC50 was 30 to 100 µM.

For the compound `O=C1CCC(=O)N[C@H](CCc2ccccc2)C(=O)N[C@@H](Cc2ccc(-c3cccc(Cl)c3)cc2)C(=O)N[C@H](Cc2ccccc2)C(=O)N[C@H](C(=O)O)Cc2ccc(cc2)N1` [Compound 171], the IC50 is over 100 µM.

For the compound `O=C1CCC(=O)N[C@H](CCc2ccccc2)C(=O)N[C@@H](Cc2ccc(-c3ccccc3)cc2)C(=O)N[C@H](Cc2ccccc2)C(=O)N[C@@H](C(=O)O)Cc2ccc(cc2)N1` [Compound 172] ([d(hPhe)][Bip][dF][dPhe(4-NH2)]-OH; linker N-4 via Suc), the IC50 is under 10 µM.

Turning to `O=C1CCC(=O)N[C@H](CCc2ccccc2)C(=O)N[C@@H](Cc2ccc(OCc3ccccc3)cc2)C(=O)N[C@H](Cc2ccccc2)C(=O)N[C@@H](C(=O)O)Cc2ccc(cc2)N1` [Compound 173] ([d(hPhe)]Y(Bn)[dF][dPhe(4-NH2)]-OH; linker N-4 via Suc), the IC50 was 10 to 30 µM.

As to `O=C(O)CCNC(=O)[C@@H]1Cc2ccc(cc2)NC(=O)[C@H](O)[C@@H](O)C(=O)N[C@H](Cc2cccs2)C(=O)N[C@@H](Cc2ccc(-c3ccccc3)cc2)C(=O)N[C@H](Cc2ccccc2)C(=O)N1` [Compound 175], the IC50 is under 10 µM.

In the case of `CC(C)(NC(=O)[C@@H]1Cc2ccc(cc2)NC(=O)[C@H](O)[C@@H](O)C(=O)N[C@H](Cc2cccs2)C(=O)N[C@@H](Cc2ccc(-c3ccccc3)cc2)C(=O)N[C@H](Cc2ccccc2)C(=O)N1)C(=O)O` [Compound 176], the IC50 is over 100 µM.

Regarding `O=C(O)[C@@H]1Cc2ccc(cc2)NC(=O)[C@H](O)[C@@H](O)C(=O)N[C@H](Cc2cccs2)C(=O)N[C@@H](Cc2ccc(OCc3ccccc3)cc2)C(=O)N[C@H](Cc2ccccc2)C(=O)N1` [Compound 177], the IC50 lay within 30 to 100 µM.

With `O=C(O)[C@@H]1Cc2ccc(cc2)NC(=O)[C@H](O)[C@@H](O)C(=O)N[C@H](Cc2cccs2)C(=O)N[C@@H](Cc2ccc(C(F)(F)F)cc2)C(=O)N[C@H](Cc2ccccc2)C(=O)N1` [Compound 178], the IC50 was over 100 µM.

Turning to `O=C1CCC(=O)N[C@H](CCc2ccccc2)C(=O)N[C@@H](Cc2ccc(-c3cccc(F)c3)cc2)C(=O)N[C@H](Cc2ccccc2)C(=O)N[C@H](C(=O)O)Cc2ccc(cc2)N1` [Compound 181], the IC50 was 10 to 30 µM.

As for `O=C1CCC(=O)N[C@H](CCc2ccccc2)C(=O)N[C@@H](Cc2ccc(-c3cc(F)cc(F)c3)cc2)C(=O)N[C@H](Cc2ccccc2)C(=O)N[C@H](C(=O)O)Cc2ccc(cc2)N1` [Compound 182], the IC50 was in the range of 30 to 100 µM.

As to `O=C1CCC(=O)N[C@H](CCc2ccccc2)C(=O)NC(c2ccc(Br)cc2)C(=O)N[C@H](Cc2ccccc2)C(=O)N[C@H](C(=O)O)Cc2ccc(cc2)N1` (stereo partly shown) [Compound 183], the IC50 was 10 to 30 µM.

As to `O=C1N[C@H](Cc2ccccc2)C(=O)N[C@@H](C(=O)O)Cc2ccc(cc2)NC(=O)[C@H](O)[C@@H](O)C(=O)N[C@H](Cc2cccs2)C(=O)N[C@H]1Cc1ccc(-c2ccccc2)cc1` [Compound 184], the IC50 is over 100 µM.

As to `O=C(O)[C@@H]1Cc2ccc(cc2)NC(=O)[C@@H](O)[C@H](O)C(=O)N[C@H](Cc2cccs2)C(=O)N[C@@H](Cc2ccc(-c3ccccc3)cc2)C(=O)N[C@H](Cc2ccccc2)C(=O)N1` [Compound 185], the IC50 is over 100 µM.

For the compound `O=C(O)CN1Cc2ccc(cc2)CNC(=O)CCC(=O)N[C@H](Cc2cccs2)C(=O)N[C@@H](Cc2ccc(-c3ccccc3)cc2)C(=O)N[C@H](Cc2ccccc2)C1=O` [Compound 186] ([d2Thi][Bip][dF][Gly(N-(4-CH2NH-benzyl))]-OH; linker N-4 via Suc), the IC50 lay in the range of 30 to 100 µM.

On to `O=C(O)[C@@H]1Cc2ccc(cc2)NC(=O)[C@@H]2CCCC[C@@H]2C(=O)N[C@H](Cc2cccs2)C(=O)N[C@@H](Cc2ccc(-c3ccccc3)cc2)C(=O)N[C@H](Cc2ccccc2)C(=O)N1` [Compound 187], for which the IC50 was over 100 µM.

Turning to `O=C(O)[C@@H]1Cc2ccc(cc2)NC(=O)[C@H](O)[C@@H](O)C(=O)N[C@H](Cc2cccs2)C(=O)N[C@@H](Cc2ccc(-c3cccc(O)c3)cc2)C(=O)N[C@H](Cc2ccccc2)C(=O)N1` [Compound 188], the IC50 was over 100 µM.

Turning to `O=C(O)[C@@H]1Cc2ccc(cc2)NC(=O)[C@H](O)[C@@H](O)C(=O)N[C@H](Cc2cccs2)C(=O)N[C@@H](Cc2ccc(Cl)cc2Cl)C(=O)N[C@H](Cc2ccccc2)C(=O)N1` [Compound 189], the IC50 was over 100 µM.

Consider `O=C(O)[C@@H]1Cc2ccc(cc2)NC(=O)[C@H](O)[C@@H](O)C(=O)N[C@H](Cc2cccs2)C(=O)N[C@@H](Cc2ccc3ccccc3c2)C(=O)N[C@H](Cc2ccccc2)C(=O)N1` [Compound 190], for which the IC50 was in the range of 10 to 30 µM.

With `O=C1CCC(=O)N[C@@H](CC2CCCCC2)C(=O)N[C@@H](Cc2ccc(-c3ccccc3)cc2)C(=O)N[C@H](CCc2ccccc2)C(=O)N[C@H](C(=O)O)Cc2ccc(cc2)N1` [Compound 191] ([Cha][Bip][d(hPhe)][Phe(4-NH2)]-OH; linker N-4 via Suc), the IC50 is under 10 µM.

In the case of `COC(=O)[C@@H]1Cc2ccc(cc2)NC(=O)CCC(=O)N[C@H](Cc2cccs2)C(=O)N[C@@H](Cc2ccc(-c3ccccc3)cc2)C(=O)N[C@H](Cc2ccccc2)C(=O)N1` [Compound 192] ([d2Thi][Bip][dF][Phe(4-NH2)]-OMe; linker N-4 via Suc), the IC50 is under 10 µM.

In the case of `NCCOCCNC(=O)[C@@H]1Cc2ccc(cc2)NC(=O)CCC(=O)N[C@H](Cc2cccs2)C(=O)N[C@@H](Cc2ccc(-c3ccccc3)cc2)C(=O)N[C@H](Cc2ccccc2)C(=O)N1` [Compound 193] ([d2Thi][Bip][dF][Phe(4-NH2)]-{NH(CH2)2O(CH2)2NH2}; linker N-4 via Suc), the IC50 is under 10 µM.

In the case of `O=C1CCC(=O)N[C@H](Cc2cccs2)C(=O)N[C@@H](Cc2ccc(-c3ccccc3)cc2)C(=O)N[C@@H](Cc2ccccc2)C(=O)N[C@H](C(=O)O)Cc2ccc(cc2)N1` [Compound 195] ([d2Thi][Bip]F[Phe(4-NH2)]-OH; linker N-4 via Suc), the IC50 is over 100 µM.

In the case of `O=C1/C=C\C(=O)N[C@@H](CC2CCCCC2)C(=O)N[C@@H](Cc2ccc(-c3ccccc3)cc2)C(=O)N[C@H](CCc2ccccc2)C(=O)N[C@H](C(=O)O)Cc2ccc(cc2)N1` [Compound 197] ([Cha][Bip][d(hPhe)][Phe(4-NH2)]-OH; linker N-4 via Maleoyl), the IC50 is under 10 µM.

For `O=C1CCC(=O)N[C@H](Cc2cccs2)C(=O)N[C@@H](Cc2ccc(-c3ccccc3)cc2)C(=O)N[C@H](Cc2ccccc2)C(=O)N[C@H](C(=O)N2CCC[C@H]2C(=O)O)Cc2ccc(cc2)N1` [Compound 199] ([d2Thi][Bip][dF][Phe(4-NH2)]P-OH; linker N-4 via Suc), the IC50 was over 100 µM.
